Patent US4055640A, “Compositions and methods for controlling the growth of bacteria, fungi and algae using certain derivatives of N-(2,2-dichlorovinyl)salicylamides” (Nippon Kayaku Co., Ltd., priority 1975, dated 1977)

Assays:
[1] = tested on: Fusarium wilt of cucumber; experiment: Exterminating test on Fusarium wilt of cucumber (Experimental Example 4); assay type: in vivo, Fusarium oxysporum f, cucumerinum; settings: 500 ppm, soil drench 100 ml per pot, two weeks
How it was run: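 Pots of steam-sterilized soil mixed with 20 g infested soil, sown with 18 cucumber seeds (Tokiwazibai), drenched with 100 ml aqueous suspension of 80% wettable powder. Benlate 50% wettable powder run as control. Disease scored two weeks after planting as percentage of healthy seedlings.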

[2] = tested on: cucumber (variety; Tokiwazibai); experiment: Phytotoxicity on cucumber (Experimental Example 4); assay type: in vivo; settings: 500 ppm
Method: Exterminating test on Fusarium wilt of cucumber Twenty (20) grams of infected soil was added uniformly into each pot which was filled with steam sterilized field soil, then 18 seeds of cucumber (variety; Tokiwazibai) were sowed in each pot. Eighty percent (80%) wettable powder of the present invention was diluted with water to obtain a suspension, and each pot was drenched with the suspension in an amount of 100 ml. Fifty percent (50%) wettable powder of methyl-1-(butylcarbamoyl) 2-benzimidazol carbamate (hereinafter referred to as Benlate) on the market was used as a control and tested by the same method. After two weeks of planting, degrees attacked by the pathogen was observed and a "percentage of healthy seedlings" was calculated as follows: [formula]

[3] = tested on: seedling blight of rice plant (pathogen Fusarium sp. and Rhizoctonia sp.); experiment: Exterminating test on seedling blight of rice plant (Experimental Example 1); assay type: in vivo; settings: 0.25g/box a.i., 5% dust mixed with soil
How it was run: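 Pathogen-contaminated nursery soil (Fusarium sp., Rhizoctonia sp.) mixed with 5% compound dust at 5 g per box; Nihonbare rice sown, grown 7 days at 17° C in lighting chamber, then moved to field. Assessed 10 days later as percentage of healthy seedlings; commercial 4% hydroxyisoxazol dust run as control.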

[4] = tested on: Rhizoctonia solani (damping-off of cucumber); experiment: Exterminating test on damping-off of cucumber (Experimental Example 3); assay type: in vivo; settings: 1,000 ppm, soil drench 50 ml per pot, 10 days
How it was run: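 Pots of field soil infested with Rhizoctonia solani (5 g/pot), sown with 10 Azumamidori cucumber seeds, then drenched with 50 ml aqueous suspension of 80% wettable powder and kept in greenhouse. PCNB 50% wettable powder as control. Percentage of healthy seedlings scored 10 days after inoculation.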

Aspergillus niger [5] = experiment: Minimum inhibitory concentration, dilution methods (Example 14); assay type: cell-based; settings: (1) potato-dextrose agar dilution method
From the text: (§1) Bacteriocidal activity and fungicidal activity of the active compounds of the present invention were examined by potato-dextrose agar dilution method, [2] waxman's liquid medium dilution method or [3] glucose bouillon medium dilution method. The results are shown in Table 4 below as the minimum inhibitory concentration (the minimum concentration of active compound found to produce 100% control of the test bacteria and fungi).

Bacillus subtilis [6] = experiment: as above; assay type: cell-based; settings: (3) glucose bouillon medium dilution method
From the text: as §1

Cladosporium harbarum = experiment: as above; assay type: cell-based; settings: (1) potato-dextrose agar dilution method
From the text: as §1

Escherichia coli = experiment: as above; assay type: cell-based; settings: (3) glucose bouillon medium dilution method
From the text: as §1

Penicillium Citrinum [7] = experiment: as above; assay type: cell-based; settings: (1) potato-dextrose agar dilution method
From the text: as §1

Staphylococcus aureus [8] = experiment: as above; assay type: cell-based; settings: (3) glucose bouillon medium dilution method
From the text: as §1

[9] = tested on: Aspergillus niger, Penicillium citrinum, Cladosporium harbarum and chaetomium globosum; experiment: Degree of growth inhibition of fungi on treated beach plates (Example 17); assay type: cell-based; design: scale not given here; settings: numerical rating, 2 weeks
Method: The emulsifiable concentrates which were prepared by Example 10 were diluted with water 400 times and 800 times to form emulsions.
The square plates of beach of which a side was 5 cm long and thickness was 5 mm were dipped into the emulsion for 2 minutes and dried for 24 hours at room temperature.
The square plates were placed on the surface of agar plates. The suspensions which contained spores of Aspergillus niger, Penicillium citrinum, Cladosporium harbarum and chaetomium globosum were respectively sprayed on the agar plates and the square plates.
The test fungi were cultivated in the incubator at the humidity of 95% and the temperature of 28° C for 2 weeks.
The degree of growth inhibition is defined in terms of the following numerical ratings.

Aspergillus niger [10] = experiment: Growth inhibition zone around treated cotton cloth (Example 18); assay type: cell-based; settings: emulsifiable concentrate diluted 1000 times
Method: (§2) The emulsifiable concentrates which were prepared by Example 10 were diluted with water 1000 times to form an emulsion. A cloth of cotton was soaked into each emulsion for 2 minutes. The clothes were dried at room temperature and cut into a square of which a side was 1 cm long. Each kind of test bacteria and fungi was inoculated, separately on plates of potato-agar and one square cloth was placed on each of such plates. Test bacteria and fungi were cultivated at 28° C for 4 days. The width of the region of growth-inhibition which was formed a circumference of the cloth was examined.

Bacillus subtilis [11] = experiment: as above; assay type: cell-based; settings: emulsifiable concentrate diluted 1000 times
Method: as §2

Penicillium Citrinum [12] = experiment: as above; assay type: cell-based; settings: emulsifiable concentrate diluted 1000 times
Method: as §2

Staphylococcus aureus [13] = experiment: as above; assay type: cell-based; settings: emulsifiable concentrate diluted 1000 times
Method: as §2

summer orange seedlings = experiment: Phytotoxicity on summer orange seedlings (Experimental Example 6); assay type: in vivo; settings: 1,000 ppm
Pseudomonas fluorescens = experiment: Minimum inhibitory concentration, dilution methods (Example 14); assay type: cell-based; settings: (1) potato-dextrose agar dilution method
From the text: as §1

[14] = tested on: bacteria gathered from circular water system; experiment: Degree of propagation on slime test boards (Example 19); assay type: cell-based; design: key: -: no propagation; +: the area of propagation is 1 - 25% on the slime test boards.; ++: the area of propagation is 26 - 50% on the slime test boards.; +++: the area of propagation is 51 - 75% on the slime test boards.; ++++: the area of propagation is 76 - 100% on the slime test boards
Method: (§3) Zero point zero two (0.02) part of active compounds in the form of 10% water soluble concentrate which was prepared by Example 13 was added into 100 parts of Waxman's liquid medium. Pieces of wood and iron (hereafter referred to as the slime test boards) were soaked into the Waxman's liquid medium. The bacteria which were gathered from circular water system were inoculated upon the Waxman's liquid medium and incubated at 27° C-34° C by shaking culture. The degree of propagation of the bacteria on the slime test boards was examined.
(§4) The growth-inhibiting activity of active compounds against the fungi and the green algae was also examined by the same method as mentioned above.
(§5) The degree of propagation of the bacteria, fungi or green algae on the slime test boards is defined in terms of the following symbols.

fungi = experiment: as above; assay type: cell-based; design: key: -: no propagation; +: the area of propagation is 1 - 25% on the slime test boards.; ++: the area of propagation is 26 - 50% on the slime test boards.; +++: the area of propagation is 51 - 75% on the slime test boards.; ++++: the area of propagation is 76 - 100% on the slime test boards
Method: as §3, §4, §5

green algae = experiment: as above; assay type: cell-based; design: key: -: no propagation; +: the area of propagation is 1 - 25% on the slime test boards.; ++: the area of propagation is 26 - 50% on the slime test boards.; +++: the area of propagation is 51 - 75% on the slime test boards.; ++++: the area of propagation is 76 - 100% on the slime test boards
Method: as §3, §4, §5

With `CCCCNC(=O)n1c(NC(=O)OC)nc2ccccc21` [Benlate, methyl-1-(butylcarbamoyl) 2-benzimidazol carbamate, reference compound] the pest or weed control at 500 ppm ([1]; Fusarium, 336 h, read-out: Percentage of healthy seedlings) was 45% and the Phytotoxicity [2] was “Nil”.

With `O=C(NC=C(Cl)Cl)c1ccccc1[O-].O=C(NC=C(Cl)Cl)c1ccccc1[O-].[Zn+2]` [compound 24] the “Percentage of healthy seedlings” value [3] was 71.3%, the “Percentage of healthy seedlings” value [4] was 100% and the “Percentage of healthy seedlings” value [1] was 47.0%. For the same compound, the minimum inhibitory concentration (Aspergillus niger [5]) was 10 mc g/ml, the minimum inhibitory concentration (Bacillus subtilis [6]) was 2.5 mc g/ml and the minimum inhibitory concentration (Cladosporium harbarum) was 2.5 mc g/ml. For the same compound, the minimum inhibitory concentration (Escherichia coli) was 40 mc g/ml, the minimum inhibitory concentration (Penicillium Citrinum [7]) was 10 mc g/ml and the minimum inhibitory concentration (Staphylococcus aureus [8]) was 5 mc g/ml. The “Degree of growth inhibition” value ([9]; 0.0125 %) was 3, the “Degree of growth inhibition” value ([9]; 0.025 %) was 3 and the “width of the growth inhibition zone” value (Aspergillus niger [10]) was 5 mm. The “width of the growth inhibition zone” value (Bacillus subtilis [11]) was 10 mm, the “width of the growth inhibition zone” value (Penicillium Citrinum [12]) was 5 mm and the “width of the growth inhibition zone” value (Staphylococcus aureus [13]) was 8 mm.

`O=C(NC=C(Cl)Cl)c1ccccc1O` [Compound No. 23] was tested, and the Phytotoxicity (summer orange seedlings) was “Nil”, the minimum inhibitory concentration (Aspergillus niger [5]) was 10 mc g/ml and the minimum inhibitory concentration (Bacillus subtilis [6]) was 5 mc g/ml. It also gave a minimum inhibitory concentration (Cladosporium harbarum) of 5 mc g/ml, a minimum inhibitory concentration (Escherichia coli) of 60 mc g/ml and a minimum inhibitory concentration (Penicillium Citrinum [7]) of 10 mc g/ml. For the same compound, the minimum inhibitory concentration (Pseudomonas fluorescens) was 13 mc g/ml, the minimum inhibitory concentration (Staphylococcus aureus [8]) was 10 mc g/ml and the “Degree of growth inhibition” value ([9]; 0.0125 %) was 3. The “Degree of growth inhibition” value ([9]; 0.025 %) was 3, the Degree of propagation ([14]; 7th day) was “-” and the Degree of propagation ([14]; 14th day) was “-”. The Degree of propagation ([14]; 21st day) was “+ (the area of propagation is 1 - 25% on the slime test boards.)”, the Degree of propagation (fungi; 7th day) was “-” and the Degree of propagation (fungi; 14th day) was “-”. The Degree of propagation (fungi; 21st day) was “-”, the Degree of propagation (green algae; 7th day) was “-” and the Degree of propagation (green algae; 14th day) was “-”. The Degree of propagation (green algae; 21st day) was “+ (the area of propagation is 1 - 25% on the slime test boards.)”.
